{
  "source": "patent US20130090381A1",
  "about": "“PYRETHRINOID-TYPE ESTERS AS PESTICIDES” (SUMITOMO CHEMICAL COMPANY, LIMITED, priority 2010, published 2013)",
  "test_system": "German cockroaches",
  "experiment": "Knockdown test on German cockroaches by spraying an oil solution",
  "type": "in vivo, German cockroach (Blattella germanica)",
  "conditions": "0.1% (w/v) oil solution, 1.5 ml sprayed; after 15 minutes; ten German cockroaches (5 of each male and female)",
  "procedure": "The present invention compound (1) (0.1 parts) produced in the aforementioned Production Example was dissolved in 10 parts of isopropyl alcohol and the resulting solution was mixed with 89.9 parts of deodorized kerosine to prepare a 0.1% (w/v) oil solution.\nTen German cockroaches (5 of each male and female) were released in a test container (measuring 8.75 cm in diameter and 7.5 cm in height, bottom area covered with a 16 mesh wire netting) coated with butter at an inner wall, and the container was disposed on the bottom of a test chamber (bottom surface measuring 46 cm and 46 cm, 70 cm in height).\nFrom 60 cm in height above the container, 1.5 ml of the oil solution of the present invention compound (1) was sprayed using a spray gun (spray pressure: 0.4 kg/cm^2). Thirty seconds after spraying, the container was removed from the test chamber. After a given time, the number of knockdowned cockroaches was counted and a knockdown rate was determined (repeated once). The knockdown rate was calculated by the following equation.\nKnockdown rate (%)=(number of knockdowned cockroaches/number of test cockroaches)×100",
  "data": [
    {"smiles": "C#CCC1=C(C)[C@@H](OC(=O)[C@@H]2[C@@H](/C=C(C#N)/C=C/C)C2(C)C)CC1=O", "note": "[present invention compound (1), (S)-2-methyl-3-propynylcyclopent-2-en-4-on-1-yl=(1R)-trans-3-[(1Z,3E)-2-cyano-1,3-pentadienyl]-2,2-dimethylcyclopropane carboxylate]", "values": [
      {"measurement": "knockdown rate", "result": 100, "unit": "%"}
    ]}
  ]
}
